Source: PMC5218480 (PLoS ONE, 2017)

Test system: MV-4-11 cells
Assay: Gene expression microarray analysis (Affymetrix PrimeView) and GSEA
Format: cell-based, human
Design: RFU PODN (11730768_x_at) / Fold change /veh PODN (11730768_x_at) / RFU LINC00158 (11744669_a_at) / Fold change /veh LINC00158 (11744669_a_at) / RFU DUSP10 (11751237_a_at) / Fold change /veh DUSP10 (11751237_a_at) / RFU ID3 (11757404_x_at) / Fold change /veh ID3 (11757404_x_at) / RFU PLEKHG5 (11737974_s_at) / Fold change /veh PLEKHG5 (11737974_s_at) / RFU LRRC4B (11730491_at) / Fold change /veh LRRC4B (11730491_at) / RFU GIMAP4 (11747438_a_at) / Fold change /veh GIMAP4 (11747438_a_at) / RFU KRT8 (11758183_x_at) / Fold change /veh KRT8 (11758183_x_at) / RFU CNN1 (11734310_a_at) / Fold change /veh CNN1 (11734310_a_at) / RFU VPS37D (11726825_at) / Fold change /veh VPS37D (11726825_at) / RFU C10orf10 (11716522_x_at) / Fold change /veh C10orf10 (11716522_x_at) / RFU KIR2DL2 /// KIR2DL4 /// KIR2DL5A /// KIR2DL5B /// KIR2DS1 /// KIR2DS2 /// KIR2DS3 /// KIR2DS4 /// KIR3DL3 /// KIR3DL3 /// KIR3DS1 (11738374_at) / Fold change /veh KIR2DL2 /// KIR2DL4 /// KIR2DL5A /// KIR2DL5B /// KIR2DS1 /// KIR2DS2 /// KIR2DS3 /// KIR2DS4 /// KIR3DL3 /// KIR3DL3 /// KIR3DS1 (11738374_at) / RFU C1QL1 (11718748_at) / Fold change /veh C1QL1 (11718748_at) / RFU TMPRSS4 (11747572_a_at) / Fold change /veh TMPRSS4 (11747572_a_at) / RFU HAMP (11756126_x_at) / Fold change /veh HAMP (11756126_x_at) / RFU RNFT2 (11725882_a_at) / Fold change /veh RNFT2 (11725882_a_at) / RFU NR4A2 (11747474_a_at) / Fold change /veh NR4A2 (11747474_a_at) / RFU ABCC12 (11746883_a_at) / Fold change /veh ABCC12 (11746883_a_at) / RFU TMEM136 (11760407_x_at) / Fold change /veh TMEM136 (11760407_x_at) / RFU CLDN22 /// WWC2 (11732394_at) / Fold change /veh CLDN22 /// WWC2 (11732394_at) / RFU HLA-DPB1 (11760878_x_at) / Fold change /veh HLA-DPB1 (11760878_x_at) / RFU SPINT1 (11716480_a_at) / Fold change /veh SPINT1 (11716480_a_at) / RFU GAP43 (11754022_s_at) / Fold change /veh GAP43 (11754022_s_at) / RFU A4GNT (11735810_at) / Fold change /veh A4GNT (11735810_at) / RFU PRB3 (11715151_x_at) / Fold change /veh PRB3 (11715151_x_at) / RFU TUBB4B (11761932_at) / Fold change /veh TUBB4B (11761932_at) / RFU CAPN14 (11732068_a_at) / Fold change /veh CAPN14 (11732068_a_at) / RFU TMCC2 (11721928_a_at) / Fold change /veh TMCC2 (11721928_a_at) / RFU IRGQ (11745062_a_at) / Fold change /veh IRGQ (11745062_a_at) / RFU FAM174B (11720279_a_at) / Fold change /veh FAM174B (11720279_a_at) / RFU TMPRSS4 (11748680_a_at) / Fold change /veh TMPRSS4 (11748680_a_at) / RFU FAM212B (11763350_a_at) / Fold change /veh FAM212B (11763350_a_at) / RFU PLEKHG5 (11743358_a_at) / Fold change /veh PLEKHG5 (11743358_a_at) / RFU ZSCAN30 (11745921_a_at) / Fold change /veh ZSCAN30 (11745921_a_at) / RFU CMKLR1 (11741424_a_at) / Fold change /veh CMKLR1 (11741424_a_at) / RFU LOC101060620 /// MAPK8IP1 (11723275_at) / Fold change /veh LOC101060620 /// MAPK8IP1 (11723275_at) / RFU SPTSSB (11747773_x_at) / Fold change /veh SPTSSB (11747773_x_at) / RFU PRSS12 (11739890_at) / Fold change /veh PRSS12 (11739890_at) / RFU BIN1 (11741810_x_at) / Fold change /veh BIN1 (11741810_x_at) / RFU WNT11 (11732464_a_at) / Fold change /veh WNT11 (11732464_a_at) / RFU C10orf10 (11716521_a_at) / Fold change /veh C10orf10 (11716521_a_at) / RFU C5orf56 (11738089_at) / Fold change /veh C5orf56 (11738089_at) / RFU CYB561 (11721691_x_at) / Fold change /veh CYB561 (11721691_x_at) / RFU ANKRD19P (11752326_a_at) / Fold change /veh ANKRD19P (11752326_a_at) / RFU OR2T12 /// OR2T33 /// OR2T8 (11738714_s_at) / Fold change /veh OR2T12 /// OR2T33 /// OR2T8 (11738714_s_at) / RFU VCAN (11748164_a_at) / Fold change /veh VCAN (11748164_a_at) / RFU JSRP1 (11732532_at) / Fold change /veh JSRP1 (11732532_at) / RFU KRTAP10-11 (11738290_x_at) / Fold change /veh KRTAP10-11 (11738290_x_at) / RFU MYO3A (11730013_a_at) / Fold change /veh MYO3A (11730013_a_at) / RFU EBF3 (11725865_a_at) / Fold change /veh EBF3 (11725865_a_at) / RFU CAMK2N1 (11719241_x_at) / Fold change /veh CAMK2N1 (11719241_x_at) / RFU C5orf56 (11738088_a_at) / Fold change /veh C5orf56 (11738088_a_at) / RFU OLFML3 (11715873_a_at) / Fold change /veh OLFML3 (11715873_a_at) / RFU LOC100653217 /// NTM (11731650_a_at) / Fold change /veh LOC100653217 /// NTM (11731650_a_at) / RFU MAPK11 (11762145_a_at) / Fold change /veh MAPK11 (11762145_a_at) / RFU FIZ1 (11724087_x_at) / Fold change /veh FIZ1 (11724087_x_at) / RFU OASL (11726364_x_at) / Fold change /veh OASL (11726364_x_at) / RFU SOX15 (11748057_x_at) / Fold change /veh SOX15 (11748057_x_at) / RFU CD79A (11719716_a_at) / Fold change /veh CD79A (11719716_a_at) / RFU HIST1H1D (11736915_at) / Fold change /veh HIST1H1D (11736915_at) / RFU CASKIN2 (11723855_a_at) / Fold change /veh CASKIN2 (11723855_a_at) / RFU LOC730098 (11760151_x_at) / Fold change /veh LOC730098 (11760151_x_at) / RFU OR4N2 (11742367_at) / Fold change /veh OR4N2 (11742367_at) / RFU PRRT2 (11749266_a_at) / Fold change /veh PRRT2 (11749266_a_at) / RFU SNX32 (11753110_a_at) / Fold change /veh SNX32 (11753110_a_at) / RFU CDHR5 (11726645_a_at) / Fold change /veh CDHR5 (11726645_a_at) / RFU RCAN1 (11760418_a_at) / Fold change /veh RCAN1 (11760418_a_at) / RFU FAM167A (11723789_a_at) / Fold change /veh FAM167A (11723789_a_at) / RFU FAM26E (11764081_at) / Fold change /veh FAM26E (11764081_at) / RFU ISYNA1 (11749810_s_at) / Fold change /veh ISYNA1 (11749810_s_at) / RFU ACY1 (11761880_at) / Fold change /veh ACY1 (11761880_at) / RFU 11764098_at / Fold change /veh 11764098_at / RFU SAMD14 (11745864_x_at) / Fold change /veh SAMD14 (11745864_x_at) / RFU NPB (11741838_a_at) / Fold change /veh NPB (11741838_a_at) / RFU TMPRSS6 (11731388_a_at) / Fold change /veh TMPRSS6 (11731388_a_at) / RFU KRTAP10-2 (11738614_at) / Fold change /veh KRTAP10-2 (11738614_at) / RFU ARHGAP8 /// PRR5-ARHGAP8 (11727945_x_at) / Fold change /veh ARHGAP8 /// PRR5-ARHGAP8 (11727945_x_at) / RFU KRTAP5-7 /// NADSYN1 (11734609_at) / Fold change /veh KRTAP5-7 /// NADSYN1 (11734609_at) / RFU RASL12 (11751679_a_at) / Fold change /veh RASL12 (11751679_a_at) / RFU CDKN2B (11736163_a_at) / Fold change /veh CDKN2B (11736163_a_at) / RFU PRF1 (11729649_at) / Fold change /veh PRF1 (11729649_at) / RFU, ZNF638 /// ZNF638-IT1 / Fold change vs veh, ZNF638 /// ZNF638-IT1 / RFU, PANK3 / Fold change vs veh, PANK3 / RFU, SH3YL1 / Fold change vs veh, SH3YL1 / RFU, ZEB2 / Fold change vs veh, ZEB2 / RFU, NRIP1 / Fold change vs veh, NRIP1 / RFU, PTTG1IP / Fold change vs veh, PTTG1IP / RFU, CAPN2 / Fold change vs veh, CAPN2 / RFU, MED14 / Fold change vs veh, MED14 / RFU, SNORA58 / Fold change vs veh, SNORA58 / RFU, C1orf63 / Fold change vs veh, C1orf63 / RFU, LRRFIP1 / Fold change vs veh, LRRFIP1 / RFU, NDUFAF7 / Fold change vs veh, NDUFAF7 / RFU, SLC12A2 / Fold change vs veh, SLC12A2 / RFU, IBTK / Fold change vs veh, IBTK / RFU, ESF1 / Fold change vs veh, ESF1 / Fold change vs veh, TMEM50B / RFU, TAOK1 / Fold change vs veh, TAOK1 / RFU, ACBD3 / Fold change vs veh, ACBD3 / RFU, TMA16 / Fold change vs veh, TMA16 / RFU, RWDD3 / Fold change vs veh, RWDD3 / RFU, BCAT1 / Fold change vs veh, BCAT1 / RFU, EDEM3 / Fold change vs veh, EDEM3 / RFU, TMEM33 / Fold change vs veh, TMEM33 / RFU, WDR75 / Fold change vs veh, WDR75 / RFU, AHCTF1 / Fold change vs veh, AHCTF1 / RFU, TFRC / Fold change vs veh, TFRC / RFU, ZDHHC17 / Fold change vs veh, ZDHHC17 / RFU, NOM1 / Fold change vs veh, NOM1 / RFU, ARL8B / Fold change vs veh, ARL8B / RFU, ZBTB11 / Fold change vs veh, ZBTB11 / RFU, TAMM41 / Fold change vs veh, TAMM41 / RFU, KIAA1704 /// LOC100996395 / Fold change vs veh, KIAA1704 /// LOC100996395 / RFU, ING1 / Fold change vs veh, ING1 / RFU, TRMT61B / Fold change vs veh, TRMT61B / RFU, FUBP3 / Fold change vs veh, FUBP3 / RFU, TP53 / Fold change vs veh, TP53 / RFU, TNKS2 / Fold change vs veh, TNKS2 / RFU, ZFP14 / Fold change vs veh, ZFP14 / RFU, ACTR2 / Fold change vs veh, ACTR2 / RFU, PPP3R1 / Fold change vs veh, PPP3R1 / RFU, PIK3R1 / Fold change vs veh, PIK3R1 / RFU, HNRNPA1 / Fold change vs veh, HNRNPA1 / RFU, RNF170 / Fold change vs veh, RNF170 / RFU, ZNF28 / Fold change vs veh, ZNF28 / RFU, RNGTT / Fold change vs veh, RNGTT / RFU, OGT / Fold change vs veh, OGT / RFU, BRD1 / Fold change vs veh, BRD1 / RFU, MARS / Fold change vs veh, MARS / RFU, ZNF655 / Fold change vs veh, ZNF655 / RFU, FAHD1 / Fold change vs veh, FAHD1 / RFU, BDP1 / Fold change vs veh, BDP1 / RFU, LRRCC1 / Fold change vs veh, LRRCC1 / RFU, ARID1A / Fold change vs veh, ARID1A / RFU, ZNF146 / Fold change vs veh, ZNF146 / RFU, ZNF330 / Fold change vs veh, ZNF330 / RFU, GPN3 / Fold change vs veh, GPN3 / RFU, C9orf123 / Fold change vs veh, C9orf123 / RFU, N4BP2L2 / Fold change vs veh, N4BP2L2 / RFU, ARFIP1 / Fold change vs veh, ARFIP1 / RFU, FAM179B / Fold change vs veh, FAM179B / RFU, BCL10 / Fold change vs veh, BCL10 / RFU, UHRF1BP1L / Fold change vs veh, UHRF1BP1L / RFU, BET1 / Fold change vs veh, BET1 / RFU, CNOT2 / Fold change vs veh, CNOT2 / RFU, ZNF268 / Fold change vs veh, ZNF268 / Fold change vs veh, ZNF507 / RFU, DGCR2 / Fold change vs veh, DGCR2 / RFU, WDSUB1 / Fold change vs veh, WDSUB1 / Fold change vs veh, HSP90B1 /// MIR3652 / RFU, ADSS / Fold change vs veh, ADSS / RFU, GK / Fold change vs veh, GK / RFU, ZNF148 / Fold change vs veh, ZNF148 / RFU, TAF9 / Fold change vs veh, TAF9 / RFU, SLC1A5 / Fold change vs veh, SLC1A5 / RFU, SLMO2 / Fold change vs veh, SLMO2 / RFU, ABCC4 / Fold change vs veh, ABCC4 / RFU, LOC101060439 /// RAP1B / Fold change vs veh, LOC101060439 /// RAP1B / RFU, RFX7 / Fold change vs veh, RFX7 / RFU, GTPBP10 / Fold change vs veh, GTPBP10 / RFU, CNEP1R1 / Fold change vs veh, CNEP1R1 / RFU, BIVM-ERCC5 /// ERCC5 / Fold change vs veh, BIVM-ERCC5 /// ERCC5 / RFU, ILF3 / Fold change vs veh, ILF3 / RFU 11762660_at / Fold change /veh 11762660_at / RFU VCAN (11757783_s_at) / Fold change /veh VCAN (11757783_s_at) / RFU DDX43 (11728927_at) / Fold change /veh DDX43 (11728927_at) / RFU KRT8 (11758188_x_at) / Fold change /veh KRT8 (11758188_x_at) / RFU NKD1 (11759106_at) / Fold change /veh NKD1 (11759106_at) / RFU SRD5A1 (11742802_a_at) / Fold change /veh SRD5A1 (11742802_a_at) / RFU TPSAB1 /// TPSB2 (11721975_s_at) / Fold change /veh TPSAB1 /// TPSB2 (11721975_s_at) / RFU GSTM3 (11746129_a_at) / Fold change /veh GSTM3 (11746129_a_at) / RFU IL23R (11737362_x_at) / Fold change /veh IL23R (11737362_x_at) / RFU TMEM51 (11727254_a_at) / Fold change /veh TMEM51 (11727254_a_at) / RFU PIWIL2 (11732686_x_at) / Fold change /veh PIWIL2 (11732686_x_at) / RFU ORM1 (11744905_x_at) / Fold change /veh ORM1 (11744905_x_at) / RFU CCDC152 (11743942_at) / Fold change /veh CCDC152 (11743942_at) / RFU ECM1 (11717891_a_at) / Fold change /veh ECM1 (11717891_a_at) / RFU IL23R (11748794_a_at) / Fold change /veh IL23R (11748794_a_at) / RFU TNFAIP8L3 (11732012_x_at) / Fold change /veh TNFAIP8L3 (11732012_x_at) / RFU MBOAT4 (11741988_at) / Fold change /veh MBOAT4 (11741988_at) / RFU 11764193_at / Fold change /veh 11764193_at / RFU TMEM53 (11763286_at) / Fold change /veh TMEM53 (11763286_at) / RFU MAGEB2 (11727129_at) / Fold change /veh MAGEB2 (11727129_at) / RFU TMEM200A (11744735_a_at) / Fold change /veh TMEM200A (11744735_a_at) / RFU CCDC152 (11751479_a_at) / Fold change /veh CCDC152 (11751479_a_at) / RFU FAM211A (11726209_a_at) / Fold change /veh FAM211A (11726209_a_at) / RFU RGS16 (11746705_a_at) / Fold change /veh RGS16 (11746705_a_at) / RFU VCAN (11755009_s_at) / Fold change /veh VCAN (11755009_s_at) / RFU RHOB (11743442_s_at) / Fold change /veh RHOB (11743442_s_at) / RFU RGS16 (11720943_a_at) / Fold change /veh RGS16 (11720943_a_at) / RFU RGS16 (11720944_at) / Fold change /veh RGS16 (11720944_at) / RFU, VPS4B / Fold change vs veh, VPS4B / RFU, CREB1 / Fold change vs veh, CREB1 / RFU, DNAJC13 / Fold change vs veh, DNAJC13 / RFU, GNAQ / Fold change vs veh, GNAQ / RFU, CDK5R1 / Fold change vs veh, CDK5R1 / RFU, ZRANB3 / Fold change vs veh, ZRANB3 / RFU, CUL4A / Fold change vs veh, CUL4A / RFU, CCNY / Fold change vs veh, CCNY / RFU, UFL1 / Fold change vs veh, UFL1 / RFU, COG3 / Fold change vs veh, COG3 / RFU, DIAPH2 / Fold change vs veh, DIAPH2 / RFU, SKA2 / Fold change vs veh, SKA2 / RFU, AFF3 / Fold change vs veh, AFF3 / RFU, LMF1 / Fold change vs veh, LMF1 / RFU, IPO11 / Fold change vs veh, IPO11 / RFU, DFFB / Fold change vs veh, DFFB / RFU, FOXP1 / Fold change vs veh, FOXP1 / RFU, CARD8 / Fold change vs veh, CARD8 / RFU, STRN3 / Fold change vs veh, STRN3 / RFU, ADK / Fold change vs veh, ADK / RFU, RASSF2 / Fold change vs veh, RASSF2 / RFU, WIPF1 / Fold change vs veh, WIPF1 / RFU, LARP1B / Fold change vs veh, LARP1B / RFU, RASA1 / Fold change vs veh, RASA1 / RFU, RB1 / Fold change vs veh, RB1 / RFU, PPFIA1 / Fold change vs veh, PPFIA1 / RFU, MAT2A / Fold change vs veh, MAT2A / RFU, CCT5 / Fold change vs veh, CCT5 / RFU, WDR92 / Fold change vs veh, WDR92 / RFU, CUX1 / Fold change vs veh, CUX1 / RFU, TTC7A / Fold change vs veh, TTC7A / RFU, TMEM135 / Fold change vs veh, TMEM135 / RFU, DEPTOR / Fold change vs veh, DEPTOR / RFU, CPM / Fold change vs veh, CPM / RFU, DNAJB6 / Fold change vs veh, DNAJB6 / RFU, CACNA2D3 / Fold change vs veh, CACNA2D3 / RFU, DTX4 / Fold change vs veh, DTX4 / RFU, TFCP2 / Fold change vs veh, TFCP2 / RFU, GMCL1 /// GMCL1P1 / Fold change vs veh, GMCL1 /// GMCL1P1 / RFU, AEBP2 / Fold change vs veh, AEBP2 / RFU, SNHG1 /// SNORD22 /// SNORD25 /// SNORD26 /// SNORD27 /// SNORD28 /// SNORD29 /// SNORD31 / Fold change vs veh, SNHG1 /// SNORD22 /// SNORD25 /// SNORD26 /// SNORD27 /// SNORD28 /// SNORD29 /// SNORD31 / Fold change (Aza/veh), C12orf56 (ProbeSet 11735607_a_at) / Fold change (ACY-1035/veh), C12orf56 (ProbeSet 11735607_a_at) / Fold change (Aza/veh), FGFR1OP (ProbeSet 11751329_s_at) / Fold change (ACY-1035/veh), FGFR1OP (ProbeSet 11751329_s_at) / Fold change (Aza/veh), VPS36 (ProbeSet 11739960_a_at) / Fold change (ACY-1035/veh), VPS36 (ProbeSet 11739960_a_at) / RFU SYPL1 (11715823_x_at) / Fold change /veh SYPL1 (11715823_x_at) / RFU IGFBP7 (11715501_s_at) / Fold change /veh IGFBP7 (11715501_s_at) / RFU REEP3 (11722064_at) / Fold change /veh REEP3 (11722064_at) / RFU IGLL1 (11728026_x_at) / Fold change /veh IGLL1 (11728026_x_at): dose or concentration left out as unconfirmed
Settings: MV-4-11 cells, 48 hours

## Nc1ccc(-c2cccs2)cc1NC(=O)c1ccc2c(c1)cc(C1CC1)n2CCN1CCOCC1 [ACY-1035]
  Fold change /veh LOC100653217 /// NTM (11731650_a_at): 0.99
